{"source": "paper PMC12785453", "about": "“Oral Fluid Concentrations and Pharmacological Effects of Clephedrone and Methylone in Humans” (International Journal of Molecular Sciences, 2025)", "key": {"[1]": {"conditions": "cited from earlier work"}, "healthy volunteers [2]": {"system": "healthy volunteers", "experiment": "Subjective effects, ARCI short form, clephedrone study", "type": "in vivo, humans", "conditions": "100 or 150 mg oral, n=8", "source_text": "(§1) The study evaluating the acute effects of clephedrone was designed as a non-controlled, prospective, observational, and naturalistic study. The procedures and evaluations included in this study have been described in previous studies evaluating other synthetic cathinones (mephedrone, methylone, alpha-PVP, NEP, HEXEN), phenethylamines (2C-B and 2C-E), or synthetic cannabinoids (JWH-122, JWH-210, UR-144).\n(§2) This study consisted of one experimental session in which participants (N = 8; 6 women, 2 men) selected their oral dose of clephedrone based on their drug use experience and preferences. According to their dose selection, 3 women and 1 man ingested 100 mg of clephedrone, while the remaining 3 women and 1 man opted for a higher dose of 150 mg. […] Participants were recruited by word of mouth by the harm reduction organization Energy Control in Barcelona (Associació Benestar i Desenvolupament, ABD).\n(§3) Subjective effects were evaluated with visual analog scales (VAS), the short form of the Addiction Research Center Inventory (ARCI), and the Evaluation of Subjective Effects of Substances with Abuse Potential questionnaire (VESSPA-SSE). In addition, the Sensitivity to Drug Reinforcement Questionnaire (SDRQ) and a pharmacological identification class questionnaire were used in the controlled study administering methylone.\nThe validated ARCI 49-item short form was used to evaluate and discriminate the subjective following five subscales that correspond to different classes of drugs of abuse: pentobarbital-chlorpromazine-alcohol group (PCAG) is susceptible to sedative effects, morphine-benzedrine group (MBG) is susceptible to euphoric effects, lysergic acid diethylamide (LSD) is susceptible to dysphoria and somatic symptoms, benzedrine (BG) is susceptible to intellectual efficiency and energy, and amphetamine (A) is susceptible to amphetamine-like effects.\n(§4) Participants included in the naturalistic clephedrone study completed VAS at baseline, 0.50, 1, 1.5, 2, 3, 4, and 5 h, and ARCI and VESSPA at baseline, 1, 2, 3, 4, and 5 h after self-administering clephedrone. In the controlled study, VAS was performed at baseline and 0.25, 0.50, 0.75, 1, 1.5, 2, 3, 4, 6, 8, 10, and 24 h, and ARCI and VESSPA at baseline and 1, 2, 3, 4, 6, 8, and 10 h after administering methylone. Participants completed SDRQ and VAS sexual desire and arousal at baseline, 1 and 10 h, and the pharmacological class identification questionnaire at 8 h.\n(§5) For statistical analysis, values of physiological (SBP, DBP, HR, and T) and subjective effects (VAS, ARCI, and VESSPA-SSE) were baseline–adjusted. Maximum effects (Emax) and the time needed to reach maximum effects (Tmax) were determined, and the area under the curve up to 5 h (AUC0–5h) for clephedrone and up to 6 h (AUC0–6h) for methylone was calculated using the trapezoidal rule. Emax and AUC values are presented as mean ± standard deviation, whereas Tmax is presented in median (range).\n(§6) To find possible significant changes through the time course compared to baseline, a Dunnett multiple comparison test was carried out to compare each time point with baseline in both drug conditions. For clephedrone the comparisons were 0–0.5 h, 0–1 h, 0–1.5 h, 0–2 h, 0–3 h, 0–4 h and 0–5 h, and for methylone this analysis included 0–0.25 h, 0–0.5 h, 0–0.75 h, 0–1 h, 0–1.5 h, 0–2 h, 0–3 h, 0–4 h and 0–6 h. Given their different study designs, no comparative analysis between the time courses of both synthetic cathinones was conducted."}, "healthy volunteers [3]": {"system": "healthy volunteers", "experiment": "Subjective effects, VESSPA-SSE, clephedrone study", "type": "in vivo, humans", "conditions": "100 or 150 mg oral, n=8", "source_text": "as §1, §2, §3\nThe VESSPA-SSE questionnaire, used to evaluate the subjective effects of stimulant drugs, The questionnaire includes 36-items and consists of six subscales that measure sedation (S), psychosomatic anxiety (ANX), changes in perception (CP), pleasure and sociability (SOC), activity and energy (ACT), and psychotic symptoms (PS).\nas §4, §5, §6"}, "[4]": {"experiment": "Oral fluid concentrations of methylone (LC-MS/MS)", "type": "in vivo, humans", "conditions": "150 or 200 mg oral", "description": "Methylone pharmacology was evaluated in a study designed as a randomized, double-blind, placebo-controlled, crossover clinical trial. Four pilot studies were conducted administering methylone at oral doses of 50 (n = 3), 100 (n = 6), 150 (n = 5), and 200 mg (n = 7). Participants attended 3 experimental sessions separated by a one-week wash-out period and received two doses of methylone (one dose per experimental session) compared to placebo, except in the last pilot study in which participants received one dose of methylone, compared to MDMA and placebo. However, in this manuscript, only the results corresponding to the highest methylone doses (n = 12; 150 and 200 mg; mean dose = 179.2 mg) are presented, to enable comparison with clephedrone self-administration. Participants were recruited by word of mouth in the volunteer database of the clinical pharmacology unit.\nIn both studies, oral fluid samples for the quantification of clephedrone and methylone concentration were collected using Salivette standard tubes. For clephedrone, oral fluid samples were collected at baseline, 0.50, 1, 1.5, 2, 3, 4, and 5 h, whereas for methylone, they were collected at baseline, 0.25, 0.50, 0.75, 1, 1.5, 2, 3, 4, 6, 8, and 10 h. After collection, all samples were centrifuged and stored frozen at −20 °C until analysis. Clephedrone oral fluid concentrations were determined using a previously validated gas chromatography coupled to mass spectrometry systems (GC-MS/MS). Methylone was quantified via liquid chromatography–tandem mass spectrometry (LC–MS/MS).\nFor oral fluid concentrations of clephedrone and methylone, only a descriptive analysis was performed to obtain the main pharmacokinetics data, including the maximum concentration (Cmax), the time required to reach maximum concentrations (Tmax), and AUC up to 5 h (AUC0–5h) for clephedrone and up to 6 h (AUC0–6h) for methylone. These parameters were calculated using the Pharmacokinetic Functions for Microsoft Excel (Joel Usansky, Atul Desai, and Diane Tang-Liu, Department of Pharmacokinetics and Drug Metabolism, Allergan, Irvine, CA, USA). […]"}}, "note": "Where two headings read alike, the source gives them in different places.", "data": [{"smiles": "CNC(C)C(=O)c1ccc(Cl)cc1", "note": "(stereo not shown) [Clephedrone, 4-chloromethcathinone]", "values": [{"measurement": "Blood concentrations, mean", "setting": "[1]; fatal cases", "value": 547, "unit": "ng/mL"}, {"measurement": "Blood concentrations, mean", "setting": "[1]; traffic controls, non-fatal cases (n = 9)", "value": 21.1, "unit": "ng/mL"}, {"measurement": "ARCI A (amphetamine-like effects) Emax", "setting": "healthy volunteers [2]", "value": "5.88 ± 0.99", "unit": "points"}, {"measurement": "ARCI BG (intellectual efficiency) Emax", "setting": "healthy volunteers [2]", "value": "4.13 ± 0.99", "unit": "points"}, {"measurement": "ARCI LSD (dysphoria) Emax", "setting": "healthy volunteers [2]", "value": "1.25 ± 2.19", "unit": "points"}, {"measurement": "ARCI MBG (euphoria) Emax", "setting": "healthy volunteers [2]", "value": "12.13 ± 2.03", "unit": "points"}, {"measurement": "ARCI PCAG (sedation) Emax", "setting": "healthy volunteers [2]", "value": "0.88 ± 4.19", "unit": "points"}, {"measurement": "ARCI A (amphetamine-like effects) AUC0-5/6 h", "setting": "healthy volunteers [2]; AUC0–5h", "value": "18.75 ± 3.54", "unit": "points·h"}, {"measurement": "ARCI BG (intellectual efficiency) AUC0-5/6 h", "setting": "healthy volunteers [2]; AUC0–5h", "value": "10.56 ± 5.30", "unit": "points·h"}, {"measurement": "ARCI LSD (dysphoria) AUC0-5/6 h", "setting": "healthy volunteers [2]; AUC0–5h", "value": "1.81 ± 4.39", "unit": "points·h"}, {"measurement": "ARCI MBG (euphoria) AUC0-5/6 h", "setting": "healthy volunteers [2]; AUC0–5h", "value": "37.56 ± 11.83", "unit": "points·h"}, {"measurement": "ARCI PCAG (sedation) AUC0-5/6 h", "setting": "healthy volunteers [2]; AUC0–5h", "value": "–3.31 ± 5.44 points·h"}, {"measurement": "VESSPA ANX (psychosomatic anxiety) Emax", "setting": "healthy volunteers [3]", "value": "1.33 ± 0.45", "unit": "points"}, {"measurement": "VESSPA CP (changes in perception) Emax", "setting": "healthy volunteers [3]", "value": "0.02 ± 0.06", "unit": "points"}, {"measurement": "VESSPA CP (changes in perception) Tmax", "setting": "healthy volunteers [3]", "value": "0.0 (0.0–1.0) h"}, {"measurement": "VESSPA S (sedation) Emax", "setting": "healthy volunteers [3]", "value": "0.90 ± 0.73", "unit": "points"}, {"measurement": "VESSPA SOC (pleasure and sociability) Emax", "setting": "healthy volunteers [3]", "value": "2.85 ± 0.47", "unit": "points"}, {"measurement": "VESSPA-ACT (activity and energy) Emax", "setting": "healthy volunteers [3]", "value": "2.52 ± 0.46", "unit": "points"}, {"measurement": "VESSPA-PS (psychotic symptoms) Emax", "setting": "healthy volunteers [3]", "value": "0.38 ± 0.50", "unit": "points"}, {"measurement": "VESSPA ANX (psychosomatic anxiety) AUC0-5/6 h", "setting": "healthy volunteers [3]; AUC0–5h", "value": "3.01 ± 0.95", "unit": "points·h"}, {"measurement": "VESSPA CP (changes in perception) AUC0-5/6 h", "setting": "healthy volunteers [3]; AUC0–5h", "value": "0.06 ± 0.18", "unit": "points·h"}, {"measurement": "VESSPA S (sedation) AUC0-5/6 h", "setting": "healthy volunteers [3]; AUC0–5h", "value": "1.69 ± 1.43", "unit": "points·h"}, {"measurement": "VESSPA SOC (pleasure and sociability) AUC0-5/6 h", "setting": "healthy volunteers [3]; AUC0–5h", "value": "7.74 ± 3.00", "unit": "points·h"}, {"measurement": "VESSPA-ACT (activity and energy) AUC0-5/6 h", "setting": "healthy volunteers [3]; AUC0–5h", "value": "5.93 ± 2.65", "unit": "points·h"}, {"measurement": "VESSPA-PS (psychotic symptoms) AUC0-5/6 h", "setting": "healthy volunteers [3]; AUC0–5h", "value": "1.15 ± 2.02", "unit": "points·h"}]}, {"smiles": "CNC(C)C(=O)c1ccc2c(c1)OCO2", "note": "(stereo not shown) [Methylone, 3,4-methylenedioxy-N-methylcathinone]", "values": [{"measurement": "Oral fluid concentration at 6 h, times lower than Cmax", "setting": "[4]; 6 h", "value": 11, "unit": "times"}, {"measurement": "Cmax", "setting": "[4]; human, oral fluid, n=12", "value": 17200, "unit": "ng/mL"}, {"measurement": "AUC(0-t)", "setting": "[4]; human, oral fluid, n=12, read-out: Oral fluid AUC0–6 h", "value": 44700, "unit": "ng·h/mL"}]}]}
